In publication PMC6590375 (Journal of Clinical Pharmacology, 2019):
Like-named read-outs stand apart in the source and are kept apart here.

How the values were obtained:
[1] = cited from earlier work
[2] = human, plasma, oral
[3] = type: in vivo, human
[4] = type: in vivo, human; conditions: for AUCinf central value, higher than in subjects with normal renal function: regression analyses
[5] = single 15 mg dose, all subjects
[6] = mild renal impairment (N = 6), single 15-mg extended-release dose, fasting
[7] = normal renal function (N = 6), single 15-mg extended-release dose, fasting
[8] = severe renal impairment (N = 6), single 15-mg extended-release dose, fasting

SMILES: CC[C@@H]1CN(C(=O)NCC(F)(F)F)C[C@@H]1c1cnc2cnc3[nH]ccc3n12 [Upadacitinib]
- Immediate-release dose eliminated in urine as unchanged upadacitinib ([1]; immediate-release formulation): Approximately 20%
- Dose proportionality of plasma exposures ([1]; over the range of immediate-release or extended-release doses evaluated in clinical studies): approximately dose‐proportional
- CL renal [2]: ~400 mL/min
- Adverse events ([3]; one subject in the mild renal impairment group, mild, reasonable possibility of being related to study drug, no other adverse events reported): diarrhea and upper respiratory infection
- Physical exam, vital signs, electrocardiogram and laboratory findings [3, 5]: no clinically significant physical exam findings, vital sign measurements, electrocardiogram abnormalities, or laboratory test abnormalities
- Tolerability [3, 5]: well tolerated
- CL renal ([4]; both, human, urine and plasma, oral, 15 mg): 32.7 mL/min
- fe (fraction of dose excreted unchanged in urine), arithmetic mean ± SD [4, 6]: 7.03 ± 3.05%
- fe (fraction of dose excreted unchanged in urine), geometric mean [4, 6]: 6.51%
- CLR (renal clearance), arithmetic mean ± SD [4, 7]: 5.64 ± 2.13 L/h
- fe (fraction of dose excreted unchanged in urine), arithmetic mean ± SD [4, 7]: 9.91 ± 4.05%
- fe (fraction of dose excreted unchanged in urine), geometric mean [4, 7]: 9.24%
- AUCinf central value, higher than in subjects with normal renal function ([4]; mild renal impairment): 18%
- AUCinf central value, higher than in subjects with normal renal function ([4]; moderate renal impairment): 33%
- AUCinf central value, higher than in subjects with normal renal function ([4]; severe renal impairment): 44%
- fe (fraction of dose excreted unchanged in urine), arithmetic mean ± SD [4, 8]: 2.48 ± 1.62%
- fe (fraction of dose excreted unchanged in urine), geometric mean [4, 8]: 2.10%
